In ChEMBL document CHEMBL1144137, “Limonoids from Swietenia macrophylla and S. aubrevilleana” (1999):

Test system: Spodoptera frugiperda
Test: Antifeedant activity against final instar larvae of Spodoptera frugiperda assessed as antifeedant index at 1000 ppm
Format: functional

C/C=C(\C)C(=O)O[C@@H]1[C@H]2C(=O)[C@](C)([C@H]3CC[C@]4(C)[C@@H](CC(=O)O[C@H]4c4ccco4)[C@]34O[C@H]24)[C@@H]([C@@H](OC(C)=O)C(=O)OC)C1(C)C [swietemahonin F]
Activity: 70.2%
